Experimental data as given in patent US8232406B2, “c-MET protein kinase inhibitors” (Vertex Pharmaceuticals Incorporated, priority 2006, dated 2012).
pKi: −log10 of the molar value.

Biological target: c-MET (Homo sapiens, UniProt P08581)
Test: Ki determination for the inhibition of c-MET (standard radiometric 33P-ATP kinase assay, polyE4Y substrate)
Assay type: biochemical
Conditions: 1.0 nM c-Met, 35 μM ATP, 0.5 mg/mL polyE4Y, 20 min; competitive tight-binding fit
Summary of the method: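 Radiometric assay of 33P transfer from 33P-ATP (35 μM) to polyE4Y (0.5 mg/mL) by 1.0 nM c-Met in 100 mM HEPES pH 7.5, 10 mM MgCl2, 25 mM NaCl, 0.01% BSA, 1 mM DTT. TCA-quenched after 20 min, filter-captured, scintillation-counted; Ki fitted to a competitive tight-binding model.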

Chain of c-MET (P08581 25-1390): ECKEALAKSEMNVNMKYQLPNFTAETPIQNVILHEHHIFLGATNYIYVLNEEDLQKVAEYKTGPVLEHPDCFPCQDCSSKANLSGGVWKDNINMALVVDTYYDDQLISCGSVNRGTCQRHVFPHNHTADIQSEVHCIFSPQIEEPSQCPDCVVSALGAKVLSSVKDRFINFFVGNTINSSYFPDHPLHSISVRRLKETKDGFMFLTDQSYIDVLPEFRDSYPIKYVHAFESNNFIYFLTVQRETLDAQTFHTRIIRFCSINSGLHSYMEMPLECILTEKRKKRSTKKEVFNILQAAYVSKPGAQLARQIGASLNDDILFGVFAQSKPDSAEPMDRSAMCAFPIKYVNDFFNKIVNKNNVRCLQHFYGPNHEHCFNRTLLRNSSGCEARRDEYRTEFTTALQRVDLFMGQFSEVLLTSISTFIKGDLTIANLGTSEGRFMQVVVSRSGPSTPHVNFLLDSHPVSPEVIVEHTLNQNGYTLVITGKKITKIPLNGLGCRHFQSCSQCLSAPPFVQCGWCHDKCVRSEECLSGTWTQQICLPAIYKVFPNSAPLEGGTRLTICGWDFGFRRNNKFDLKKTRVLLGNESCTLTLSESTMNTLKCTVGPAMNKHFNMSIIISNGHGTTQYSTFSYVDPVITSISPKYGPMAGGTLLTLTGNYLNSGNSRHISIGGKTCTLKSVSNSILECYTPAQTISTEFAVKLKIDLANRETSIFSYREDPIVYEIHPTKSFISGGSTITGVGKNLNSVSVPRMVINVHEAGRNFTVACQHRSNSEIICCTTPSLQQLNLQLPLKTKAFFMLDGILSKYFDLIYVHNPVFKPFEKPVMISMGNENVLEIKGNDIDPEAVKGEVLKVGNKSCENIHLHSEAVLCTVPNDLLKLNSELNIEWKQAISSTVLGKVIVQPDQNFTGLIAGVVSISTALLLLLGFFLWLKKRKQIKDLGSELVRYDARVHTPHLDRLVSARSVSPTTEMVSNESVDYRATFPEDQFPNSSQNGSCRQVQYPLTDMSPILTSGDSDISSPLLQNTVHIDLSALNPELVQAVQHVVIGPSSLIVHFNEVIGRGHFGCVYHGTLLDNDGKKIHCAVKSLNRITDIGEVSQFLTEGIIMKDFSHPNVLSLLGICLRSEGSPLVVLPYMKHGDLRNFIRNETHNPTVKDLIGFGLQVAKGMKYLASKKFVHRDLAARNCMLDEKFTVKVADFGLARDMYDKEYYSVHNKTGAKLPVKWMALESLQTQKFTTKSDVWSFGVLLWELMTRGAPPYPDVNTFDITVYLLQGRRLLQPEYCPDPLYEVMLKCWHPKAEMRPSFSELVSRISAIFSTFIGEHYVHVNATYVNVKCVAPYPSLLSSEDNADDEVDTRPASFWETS

Structure (SMILES) | pKi
Nc1ncc(-c2ccc(CN3CCCC3)cc2)cc1-c1nnnn1-c1cccc(Cl)c1F [I-A-343] | ≥ 7.00
Nc1ncc(-c2ccc(CN3CCC(N4CCCCC4)CC3)cc2)cc1-c1nnnn1-c1cccc(Cl)c1Cl [I-A-98] | ≥ 7.00
CC(=O)N1CCC(n2cc(-c3cnc(N)c(-c4nnnn4-c4cccc(F)c4F)c3)cn2)CC1 [I-A-455] | ≥ 7.00
Nc1nc2ccc(-c3cnc(N)c(-c4nnnn4-c4cccc(F)c4F)c3)cc2s1 [I-A-308] | ≥ 7.00
Nc1ncc(-c2cccnc2)cc1-c1nnsc1-c1cccc(Cl)c1Cl [I-C-1] | 6.00 to 7.00
Nc1ncc(-c2ccc(N3CCCC3)nc2)cc1-c1nnnn1-c1cccc(F)c1F [I-A-64] | ≥ 7.00
CCN(C)Cc1ccc(-c2cnc(N)c(-c3nnnn3-c3cccc(F)c3F)c2)cc1 [I-A-149] | ≥ 7.00
Nc1nc2cc(-c3cnc(N)c(-c4nnnn4-c4cccc(F)c4F)c3)c(F)cc2[nH]1 [I-A-141] | ≥ 7.00
Nc1ncc(-c2cccnc2)nc1-c1nncn1-c1cc(Cl)ccc1F [I-A-34] | 6.00 to 7.00
COc1c(F)cccc1-n1nnnc1-c1cc(-c2ccc(CN3CCCC3)cc2)cnc1N [I-A-604] | 6.00 to 7.00
Nc1ncc(-c2cnn([C@@H]3CCNC3)c2)cc1-c1nnnn1-c1cccc(Cl)c1F [I-A-538] | ≥ 7.00
CN1CCN(c2ccc(-c3cnc(N)c(-c4nccn4-c4cccc(Cl)c4Cl)c3)cc2)CC1 [I-A-402] | 6.00 to 7.00
CC(=O)N(C)c1ccc(-c2cnc(N)c(-c3nnnn3-c3cccc(F)c3F)c2)cc1 [I-A-337] | ≥ 7.00
Nc1ncc(-c2ccncc2)cc1-c1nnnn1-c1cccc(F)c1F [I-A-490] | 6.00 to 7.00
Cc1c(Cl)cccc1-n1nnnc1-c1cc(-c2ccc(CN3CCCC3)cc2)cnc1N [I-A-599] | ≥ 7.00
Nc1ncc(-c2ccc(CN3CCCCC3)cc2)cc1-c1nnnn1-c1cccc(F)c1F [I-A-134] | ≥ 7.00
CCCN1CCC(n2cc(-c3cnc(N)c(-c4nnnn4-c4cccc(F)c4F)c3)nn2)CC1 [I-A-482] | ≥ 7.00

Structure (SMILES) | pKi
CN(C)Cc1ccc(-c2cnc(N)c(-c3nnnn3-c3cc(F)ccc3Cl)c2)cc1 [I-A-592] | 6.00 to 7.00
CS(=O)(=O)NCc1ccc(-c2cnc(N)c(-c3nnnn3-c3cccc(F)c3F)c2)cc1 [I-A-192] | ≥ 7.00
Nc1ncc(-c2cccc([N+](=O)[O-])c2)cc1-c1nnnn1-c1cccc(F)c1F [I-A-239] | ≥ 7.00
Nc1ncc(-c2cnn(C3CCNCC3)c2)cc1-c1nnnn1-c1cc(F)cc(F)c1 [I-A-627] | 6.00 to 7.00
CC(=O)Nc1cccc(-c2cnc(N)c(-c3nnnn3-c3c(F)ccc(F)c3N)c2)c1 [I-A-383] | 6.00 to 7.00
Nc1ncc(-c2cnn(C3CCN(C(=O)C(F)(F)F)CC3)c2)cc1-c1nnnn1-c1cccc(F)c1Cl [I-A-395] | 6.00 to 7.00
Nc1ncc(C2=CCN(C(=O)C3CCCOC3)CC2)cc1-c1nnnn1-c1cccc(F)c1F (stereo not shown) [I-A-522] | ≥ 7.00
Nc1cccc(-c2cnc(N)c(-c3nncn3-c3cccc(F)c3F)n2)c1 [I-A-12] | ≥ 7.00
Nc1ncc(-c2cccnc2)cc1-c1nnnn1-c1cccc(Cl)c1F [I-A-557] | 6.00 to 7.00
COC(=O)C(C)NC(=O)Nc1cccc(-c2cnc(N)c(-c3nnnn3-c3cccc(F)c3F)c2)c1 (stereo not shown) [I-A-327] | 6.00 to 7.00
Nc1ncc(-c2ccc(CN3CCCC3)cc2)cc1-c1nnnn1-c1cccc(F)c1Cl [I-A-386] | 6.00 to 7.00
CN(C)S(=O)(=O)N1CCC(n2cc(-c3cnc(N)c(-c4nnnn4-c4cccc(Cl)c4F)c3)cn2)CC1 [I-A-442] | ≥ 7.00
Nc1ncc(-c2cccnc2)cc1-c1nnnn1-c1cccc(F)c1F [I-A-20] | 6.00 to 7.00
CN(C)CCCN(C)S(=O)(=O)c1ccc(-c2cnc(N)c(-c3nnnn3-c3cccc(F)c3F)c2)cc1 [I-A-159] | ≥ 7.00
Nc1ncc(-c2cnn(C3CCNCC3)c2)cc1-c1nnnn1-c1cccc(Cl)c1F [I-A-626] | ≥ 7.00
CCNC(=O)Nc1nc2cc(F)c(-c3cnc(N)c(-c4nncn4-c4cccc(F)c4F)n3)cc2[nH]1 [I-A-57] | ≥ 7.00
CCOC(=O)Cn1cc(-c2cnc(N)c(-c3nnnn3-c3cccc(F)c3F)c2)cn1 [I-A-345] | ≥ 7.00
